Target: T1, PI3Kα E545K (Homo sapiens, UniProt P42336, E545K)
Experiment: PI3Kα E545K mutant in vitro cell based assay, MCF-7 cells
Conditions: MCF-7 cell line, 0% FBS, 3 hours treatment
Text: PI3K-Alpha Kinase (PI3Kα) Activity: Wild-Type PI3Kα, H1047R Mutant PI3Kα, and E545K Mutant PI3Kα In Vitro Cell Based Assays and Determination of IC50 Values for Inhibitors
The MDA-MB-453 (ATCC-HTB-131) cell line (PI3Kα H1047R) and MCF-7 (ATCC-HTB-22) cell line (PI3Kα E545K), MDA-MB-361 (ATCC-HTB-27) cell line (PI3Kα E545K), and SKBR3 (ATCC-HTB-30) cell line (wild type PI3Kα) were obtained from the American Type Culture Collection (Manassas, VA). MDA-MB-453 cells were maintained in Dulbecco's Modified Eagle Media (DMEM, Gibco 12430) supplemented with 10% Fetal Bovine Serum, heat inactivated (FBS HI, Gibco 10082), 1× non-essential amino acids (NEAA, Gibco 11140), 1 mM sodium pyruvate (Gibco 11360) and 1× Anti-Anti (Gibco 15240). MCF-7 cells were maintained in Minimum Essential Media (MEM) (Gibco 11095) supplemented with 10% Fetal Bovine Serum, heat inactivated (FBS HI, Gibco 10082), 1× non-essential amino acids (NEAA, Gibco 11140), 1 mM sodium pyruvate (Gibco 11360), 1× Anti-Anti (Gibco 15240) and 10 μg/mL human insulin (Sigma I 9278). MDA-MB-361 cells were maintained in Dulbecco's Modified Eagle Media (DMEM, Gibco 12430) supplemented with 20% Fetal Bovine Serum, heat inactivated (FBS HI, Gibco 10082), 1× non-essential amino acids (NEAA, Gibco 11140), 1 mM sodium pyruvate (Gibco 11360) and 1× Anti-Anti (Gibco 15240). SKBR3 cells were maintained in McCoy's 5A (Gibco 16600) supplemented with 10% Fetal Bovine Serum, heat inactivated (FBS HI, Gibco 10082), and 1× Anti-Anti (Gibco 15240). Cultures were maintained in a humidified incubator at 37° C. under 5% CO2/95% air.
For compound testing in 0% FBS, MDA-MB-453, MCF-7 and SKBR3 cells were seeded at a density of 1.5×10^4, 1.0×10^4, and 1.0×10^4 cells, respectively, per well in white 384-well plates in 20 μl of Minimum Essential Media (MEM) assay media with 1×NEAA, 1 mM sodium pyruvate, and 1 μg/mL human insulin (Sigma 19278) (Assay Medium); while MDA-MB-361 cells were seeded at a density of 1.5×10^4 per well in white 384-well plates in 20 μl Assay Medium without insulin. After plating, cells were allowed to attach overnight. Compounds dissolved in 10 mM stock solutions in DMSO were serially diluted 1:3 in DMSO to generate a 10-point dilution series and plated using an acoustic liquid handler system (Echo 550 Series Liquid Handler, Labcyte). A 5× intermediate compound dilution plate in MEM with 1×NEAA and 1 mM sodium pyruvate (150 μM starting compound concentration in 1.5% DMSO) was then prepared. Five μl of the intermediate serially diluted compounds were added to the cell plate to final concentrations ranging from […] in 0.3% DMSO. 0.3% DMSO alone was used to establish the maximum (MAX) signal and GDC-0032 at a final concentration of 1 μM was used as a reference compound for the minimum (MIN) signal. After 3 hours treatment, the medium was removed, and the cells were lysed in 10 μL of 1× SureFire Lysis buffer with shaking for 10 minutes at room temperature. The Acceptor Mix (Reaction Buffer 1+Reaction Buffer 2+Activation Buffer+SureFire Ultra Acceptor Beads) was prepared by diluting Activation buffer 25-fold in combined Reaction Buffer 1 and Reaction Buffer 2.
The Acceptor beads were diluted 50-fold in the combined Reaction Buffers. Five μL of Acceptor Mix was added to each well, the plate was sealed and covered with foil and incubated for 1 hour at room temperature. The Donor Mix (dilution buffer+SureFire Ultra Donor Beads) was prepared by diluting Donor Beads 50-fold in dilution buffer. Five μL of the Donor Mix was added to each well and the plate sealed and covered with foil and incubated for 1-2 hours at room temperature in the dark. The plates were read on a Neo2 plate reader instrument from Biotek using standard AlphaLisa settings.
Compounds were tested in duplicate and the % inhibition at each compound concentration was used to generate two dose response curves. One IC50 was generated using average % inhibition at each compound concentration. […]

T1 sequence (P42336 whole entry E545K): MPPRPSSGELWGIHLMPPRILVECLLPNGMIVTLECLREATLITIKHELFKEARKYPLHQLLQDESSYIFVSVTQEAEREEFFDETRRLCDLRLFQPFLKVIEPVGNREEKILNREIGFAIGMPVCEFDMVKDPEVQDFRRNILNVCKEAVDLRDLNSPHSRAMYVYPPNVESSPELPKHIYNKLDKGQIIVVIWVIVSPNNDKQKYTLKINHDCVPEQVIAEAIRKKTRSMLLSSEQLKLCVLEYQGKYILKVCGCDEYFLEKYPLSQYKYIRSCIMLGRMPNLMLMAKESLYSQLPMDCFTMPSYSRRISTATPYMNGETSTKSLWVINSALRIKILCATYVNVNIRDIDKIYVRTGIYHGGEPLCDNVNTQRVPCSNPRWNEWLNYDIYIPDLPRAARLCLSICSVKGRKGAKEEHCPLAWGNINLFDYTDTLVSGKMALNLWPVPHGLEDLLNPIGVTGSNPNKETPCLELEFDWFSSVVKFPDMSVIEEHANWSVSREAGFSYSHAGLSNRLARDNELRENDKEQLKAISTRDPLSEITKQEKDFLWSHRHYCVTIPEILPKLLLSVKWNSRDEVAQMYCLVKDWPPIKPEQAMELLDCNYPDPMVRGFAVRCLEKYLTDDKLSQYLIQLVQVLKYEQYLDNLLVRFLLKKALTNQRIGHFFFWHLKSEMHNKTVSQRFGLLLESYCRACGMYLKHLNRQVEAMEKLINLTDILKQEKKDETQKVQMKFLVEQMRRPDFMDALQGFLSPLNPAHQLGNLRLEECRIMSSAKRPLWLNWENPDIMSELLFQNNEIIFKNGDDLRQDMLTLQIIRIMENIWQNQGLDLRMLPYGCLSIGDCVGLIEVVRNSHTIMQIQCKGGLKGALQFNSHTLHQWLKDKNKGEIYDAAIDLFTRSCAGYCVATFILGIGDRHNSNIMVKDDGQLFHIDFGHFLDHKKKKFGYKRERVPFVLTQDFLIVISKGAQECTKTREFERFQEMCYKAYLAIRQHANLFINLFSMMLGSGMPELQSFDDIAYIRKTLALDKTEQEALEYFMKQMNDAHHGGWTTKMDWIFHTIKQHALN
T1 sequence (P27986 whole entry partner): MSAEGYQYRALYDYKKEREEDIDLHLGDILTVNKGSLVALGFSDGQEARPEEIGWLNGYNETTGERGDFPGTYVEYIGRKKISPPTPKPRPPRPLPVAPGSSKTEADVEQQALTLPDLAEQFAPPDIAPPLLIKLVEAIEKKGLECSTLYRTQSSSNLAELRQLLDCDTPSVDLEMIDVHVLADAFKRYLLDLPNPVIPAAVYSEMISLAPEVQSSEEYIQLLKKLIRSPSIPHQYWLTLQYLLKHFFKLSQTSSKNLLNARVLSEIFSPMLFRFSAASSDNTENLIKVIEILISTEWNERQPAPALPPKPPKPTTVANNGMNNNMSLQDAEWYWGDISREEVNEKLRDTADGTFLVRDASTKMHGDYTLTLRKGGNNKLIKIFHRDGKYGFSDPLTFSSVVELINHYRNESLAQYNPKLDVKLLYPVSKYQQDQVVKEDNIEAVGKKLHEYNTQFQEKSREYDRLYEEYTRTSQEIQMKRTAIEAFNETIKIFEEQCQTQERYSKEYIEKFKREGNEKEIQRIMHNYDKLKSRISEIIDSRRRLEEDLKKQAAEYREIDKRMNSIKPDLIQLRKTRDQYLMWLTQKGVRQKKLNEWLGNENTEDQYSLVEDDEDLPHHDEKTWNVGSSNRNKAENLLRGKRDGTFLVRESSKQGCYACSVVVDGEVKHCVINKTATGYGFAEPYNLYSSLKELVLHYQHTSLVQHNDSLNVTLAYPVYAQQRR

IC50, < 500 nM:
Cc1cc([C@@H](C)Oc2ccc(Cl)nc2C(N)=O)c2oc(-c3ccc4c(c3)OCC(=O)N4C)c(C)c(=O)c2c1 [Example 119A, 6-Chloro-3-[(1R)-1-[3,6-dimethyl-2-(4-methyl-3-oxo-1,4-benzoxazin-7-yl)-4-oxo-chromen-8-yl]ethoxy]pyridine-2-carboxamide]
Cc1cc([C@@H](C)Oc2ccc(Cl)nc2C(N)=O)c2oc(-c3ccc4c(c3)CCN(C)C4)c(C)c(=O)c2c1 [Example 71A, 6-Chloro-3-[(1R)-1-[3,6-dimethyl-2-(2-methyl-3,4-dihydro-1H-isoquinolin-6-yl)-4-oxo-chromen-8-yl]ethoxy]pyridine-2-carboxamide]
Cc1cc([C@@H](C)Oc2ccc(Cl)nc2C(N)=O)c2oc(-c3cnc4scnc4c3)c(C)c(=O)c2c1 [Example 126A, 6-Chloro-3-[(1R)-1-(3,6-dimethyl-4-oxo-2-thiazolo[5,4-b]pyridin-6-yl-chromen-8-yl)ethoxy]pyridine-2-carboxamide]
Cc1cc([C@@H](C)Oc2ccc(Cl)nc2C(N)=O)c2oc(-c3ccc4c(c3)ncn4C)c(C)c(=O)c2c1 [Example 69A, 6-Chloro-3-[(1R)-1-[3,6-dimethyl-2-(1-methylbenzimidazol-5-yl)-4-oxo-chromen-8-yl]ethoxy]pyridine-2-carboxamide]
Cc1cc([C@@H](C)Oc2ccc(Cl)nc2S(N)(=O)=O)c2oc(-c3ccc4nn(C)cc4c3)c(C)c(=O)c2c1 [Example 16A, 6-Chloro-3-[(1R)-1-[3,6-dimethyl-2-(2-methylindazol-5-yl)-4-oxo-chromen-8-yl]ethoxy]pyridine-2-sulfonamide]
Cc1cc([C@@H](C)Oc2ccc(Cl)nc2S(N)(=O)=O)c2oc(-c3cnoc3)c(C)c(=O)c2c1 [Example 12C, 6-Chloro-3-[(1R)-1-(2-isoxazol-4-yl-3,6-dimethyl-4-oxo-chromen-8-yl)ethoxy]pyridine-2-sulfonamide]
Cc1cc([C@@H](C)Oc2ccc(Cl)nc2C(N)=O)c2oc(-c3ccccn3)c(C)c(=O)c2c1 [Example 19A, 6-Chloro-3-[(1R)-1-[3,6-dimethyl-4-oxo-2-(2-pyridyl)chromen-8-yl]ethoxy]pyridine-2-carboxamide]
Cc1cc([C@@H](C)Oc2ccc(F)cc2S(N)(=O)=O)c2oc(C3CC3)c(C)c(=O)c2c1 [Example 107C, 2-[(1R)-1-(2-Cyclopropyl-3,6-dimethyl-4-oxo-chromen-8-yl)ethoxy]-5-fluoro-benzenesulfonamide]
Cc1cc([C@@H](C)Oc2ccc(F)c(F)c2C(N)=O)c2oc(-c3ccc4nn(C)cc4c3)c(C)c(=O)c2c1 [Example 17A, 6-[(1R)-1-[3,6-Dimethyl-2-(2-methylindazol-5-yl)-4-oxo-chromen-8-yl]ethoxy]-2,3-difluoro-benzamide]
Cc1cc([C@@H](C)Oc2ccc(Cl)nc2S(N)(=O)=O)c2oc(C3COC3)c(C)c(=O)c2c1 [Example 114C, 6-Chloro-3-[(1R)-1-[3,6-dimethyl-2-(oxetan-3-yl)-4-oxo-chromen-8-yl]ethoxy]pyridine-2-sulfonamide]
Cc1cc([C@@H](C)Oc2ccc(Cl)nc2S(N)(=O)=O)c2oc(C3(CCO)CC3)c(C)c(=O)c2c1 [Example 127C, 6-Chloro-3-[(1R)-1-[2-[1-(2-hydroxyethyl)cyclopropyl]-3,6-dimethyl-4-oxo-chromen-8-yl]ethoxy]pyridine-2-sulfonamide]
Cc1cc([C@@H](C)Oc2ccc(Cl)nc2C(N)=O)c2oc(-c3ccc4c(c3)C(=O)N(C)C4)c(C)c(=O)c2c1 [Example 15B, 6-Chloro-3-[(1R)-1-[3,6-dimethyl-2-(2-methyl-3-oxo-isoindolin-5-yl)-4-oxo-chromen-8-yl]ethoxy]pyridine-2-carboxamide]
Cc1cc([C@@H](C)Oc2ccc(Cl)nc2C(N)=O)c2oc(-c3ccc4nn(C)c(F)c4c3)c(C)c(=O)c2c1 [Example 48C, 6-Chloro-3-[(1R)-1-[2-(3-fluoro-2-methyl-indazol-5-yl)-3,6-dimethyl-4-oxo-chromen-8-yl]ethoxy]pyridine-2-carboxamide]
Cc1cc([C@@H](C)Oc2ccc(Cl)nc2C(N)=O)c2oc(-c3ccc4nsnc4c3)c(C)c(=O)c2c1 [Example 140A, 3-[(1R)-1-[2-(2,1,3-Benzothiadiazol-5-yl)-3,6-dimethyl-4-oxo-chromen-8-yl]ethoxy]-6-chloro-pyridine-2-carboxamide]
Cc1cc([C@@H](C)Oc2ccc(Cl)nc2C(N)=O)c2oc(-c3ccc4c(c3)OCCO4)c(C)c(=O)c2c1 [Example 65A, 6-Chloro-3-[(1R)-1-[2-(2,3-dihydro-1,4-benzodioxin-6-yl)-3,6-dimethyl-4-oxo-chromen-8-yl]ethoxy]pyridine-2-carboxamide]
Cc1cc([C@@H](C)Oc2ccc(Cl)nc2C(N)=O)c2oc(-c3ccc4c(c3)CCNC4=O)c(C)c(=O)c2c1 [Example 116A, 6-Chloro-3-[(1R)-1-[3,6-dimethyl-4-oxo-2-(1-oxo-3,4-dihydro-2H-isoquinolin-6-yl)chromen-8-yl]ethoxy]pyridine-2-carboxamide]
CONS(=O)(=O)c1nc(F)ccc1O[C@H](C)c1cc(C)cc2c(=O)c(C)c(-c3cnn(CC(C)(C)O)c3)oc12 [Example 136C, 6-Fluoro-3-[(1R)-1-[2-[1-(2-hydroxy-2-methyl-propyl)pyrazol-4-yl]-3,6-dimethyl-4-oxo-chromen-8-yl]ethoxy]-N-methoxy-pyridine-2-sulfonamide]
Cc1cc([C@@H](C)Oc2ccc(Cl)nc2S(N)(=O)=O)c2oc(-c3ccc4nc(C)cn4c3)c(C)c(=O)c2c1 [Example 120C, 6-Chloro-3-[(1R)-1-[3,6-dimethyl-2-(2-methylimidazo[1,2-a]pyridin-6-yl)-4-oxo-chromen-8-yl]ethoxy]pyridine-2-sulfonamide]
Cc1cc([C@@H](C)Oc2ccc(Cl)nc2C(N)=O)c2oc(-c3cnn(C)c3)c(C)c(=O)c2c1 [Example 22A, 6-Chloro-3-[(1R)-1-[3,6-dimethyl-2-(1-methylpyrazol-4-yl)-4-oxo-chromen-8-yl]ethoxy]pyridine-2-carboxamide]
Cc1cc([C@@H](C)Oc2ccc(Cl)nc2C(N)=O)c2oc(-c3ccc4c(c3)CN(C)C4=O)c(C)c(=O)c2c1 [Example 14B, 6-Chloro-3-[(1R)-1-[3,6-dimethyl-2-(2-methyl-1-oxo-isoindolin-5-yl)-4-oxo-chromen-8-yl]ethoxy]pyridine-2-carboxamide]

Target: T1, PI3Kα E545K
Experiment: PI3Kα E545K mutant in vitro cell based assay, MDA-MB-361 cells
Parameters: MDA-MB-361 (ATCC-HTB-27) cell line (PI3Kα E545K); host or cells: MDA-MB-361
Conditions: MDA-MB-361 cell line, 0% FBS, no insulin, 3 hours treatment
Procedure, shortened: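 MDA-MB-361 cells (PI3Kα E545K) seeded in serum-free MEM assay medium without insulin, attached overnight, then treated 3 h with compound (10-point 1:3 series, 0.3% DMSO). AlphaLISA SureFire readout of lysates. IC50 by 4-parameter fit, normalized to DMSO (max) and 1 μM GDC-0032 (min).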

IC50, < 500 nM:
Cc1cc([C@@H](C)Oc2ccc(Cl)nc2C(N)=O)c2oc(-c3ccc4c(c3)OCC(=O)N4C)c(C)c(=O)c2c1 [Example 119A, 6-Chloro-3-[(1R)-1-[3,6-dimethyl-2-(4-methyl-3-oxo-1,4-benzoxazin-7-yl)-4-oxo-chromen-8-yl]ethoxy]pyridine-2-carboxamide]
Cc1cc([C@@H](C)Oc2ccc(Cl)nc2S(N)(=O)=O)c2oc(-c3ccc4nn(C)cc4c3)c(C)c(=O)c2c1 [Example 16A, 6-Chloro-3-[(1R)-1-[3,6-dimethyl-2-(2-methylindazol-5-yl)-4-oxo-chromen-8-yl]ethoxy]pyridine-2-sulfonamide]
Cc1cc([C@@H](C)Oc2ccc(F)cc2S(N)(=O)=O)c2oc(C3CC3)c(C)c(=O)c2c1 [Example 107C, 2-[(1R)-1-(2-Cyclopropyl-3,6-dimethyl-4-oxo-chromen-8-yl)ethoxy]-5-fluoro-benzenesulfonamide]
Cc1cc([C@@H](C)Oc2ccc(F)c(F)c2C(N)=O)c2oc(-c3ccc4nn(C)cc4c3)c(C)c(=O)c2c1 [Example 17A, 6-[(1R)-1-[3,6-Dimethyl-2-(2-methylindazol-5-yl)-4-oxo-chromen-8-yl]ethoxy]-2,3-difluoro-benzamide]

Source: US20240182460A1, “ALLOSTERIC CHROMENONE INHIBITORS OF PHOSPHOINOSITIDE 3-KINASE (PI3K) FOR THE TREATMENT OF DISEASE” (PETRA PHARMA CORPORATION, priority 2022, published 2024)
